According to patent US12077503B2, “Substituted cyclic amides and their use as herbicides” (FMC CORPORATION, priority 2015, dated 2024):

What was measured:
Type in all cases: in vivo
[1] = system: pigweed (Amaranthus retroflexus); assay: Test A postemergence; conditions: Amaranthus retroflexus, post-emergence, 240 h
How it was run: (§1)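 Visual injury, scored on a 0–100 scale relative to untreated controls, was recorded about 10 d after application. Treatments were a preemergence soil spray over planted seeds or a postemergence spray on plants at the one- to two-leaf stage, 2 to 10 cm tall, all in loam soil–sand blend in the greenhouse.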

[2] = system: ragweed (common ragweed, Ambrosia elatior); assay: Test A postemergence; conditions: Ambrosia artemisiifolia, post-emergence, 240 h
How it was run: as §1

[3] = system: Galium (catchweed bedstraw, Galium aparine); assay: Test A postemergence; conditions: Galium, post-emergence, 240 h
How it was run: as §1

[4] = system: wheat (Triticum aestivum); assay: Test A postemergence; conditions: Triticum aestivum, post-emergence, 240 h
How it was run: as §1

[5] = system: ryegrass, Italian (Italian ryegrass, Lolium multiflorum); assay: Test A postemergence; conditions: Lolium multiflorum, post-emergence, 240 h
How it was run: as §1

[6] = system: blackgrass (Alopecurus myosuroides); assay: Test A postemergence; conditions: Alopecurus myosuroides, post-emergence, 240 h
How it was run: as §1

[7] = system: giant foxtail (Setaria faberii); assay: Test A postemergence; conditions: Setaria faberi, post-emergence, 240 h
How it was run: as §1

corn (Zea mays) = assay: Test A postemergence; conditions: Zea mays, post-emergence, 240 h
How it was run: as §1

Kochia (Kochia scoparia) [8] = assay: Test A postemergence; conditions: Bassia scoparia, post-emergence, 240 h
How it was run: as §1

[9] = system: barnyardgrass (Echinochloa crus-galli); assay: Test A postemergence; conditions: Echinochloa crus-galli, post-emergence, 240 h
How it was run: as §1

[10] = system: pigweed (Amaranthus retroflexus); assay: Test A preemergence; conditions: Amaranthus retroflexus, pre-emergence, 240 h, 0 to 100 scale where 0 is no effect and 100 is complete control, read-out: Pigweed plant response rating
[11] = system: ragweed (common ragweed, Ambrosia elatior); assay: Test A preemergence; conditions: Ambrosia artemisiifolia, pre-emergence, 240 h, 0 to 100 scale where 0 is no effect and 100 is complete control, read-out: Ragweed plant response rating
How it was run: as §1

[12] = system: ryegrass, Italian (Italian ryegrass, Lolium multiflorum); assay: Test A preemergence; conditions: Lolium multiflorum, pre-emergence, 240 h, 0 to 100 scale where 0 is no effect and 100 is complete control, read-out: Ryegrass, Italian plant response rating
How it was run: as §1

[13] = system: giant foxtail (Setaria faberii); assay: Test A preemergence; conditions: Setaria faberi, pre-emergence, 240 h, 0 to 100 scale where 0 is no effect and 100 is complete control, read-out: Foxtail, Giant plant response rating
How it was run: as §1

Kochia (Kochia scoparia) [14] = assay: Test A preemergence; conditions: Bassia scoparia, pre-emergence, 240 h, 0 to 100 scale where 0 is no effect and 100 is complete control, read-out: Kochia plant response rating
How it was run: as §1

[15] = system: barnyardgrass (Echinochloa crus-galli); assay: Test A preemergence; conditions: Echinochloa crus-galli, pre-emergence, 240 h, 0 to 100 scale where 0 is no effect and 100 is complete control, read-out: Barnyardgrass plant response rating
How it was run: as §1

[16] = system: ducksalad (Heteranthera limosa); assay: Test B flooded paddy test; conditions: Heteranthera limosa, 250 g ai/ha, Flood; 0 to 100 scale where 0 is no effect and 100 is complete control; read-out: Ducksalad plant response rating
How it was run: (§2)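 Response scored visually against untreated controls, 0 = no effect and 100 = complete control, 13–15 d after treatment in the greenhouse. Compounds added to paddy water held 3 cm above soil surface. Treatment given at 2-leaf stage.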

rice (Oryra sativa) = assay: Test B flooded paddy test; conditions: Oryza sativa, 250 g ai/ha, Flood; 0 to 100 scale where 0 is no effect and 100 is complete control; read-out: Rice plant response rating
How it was run: as §2

[17] = system: sedge, umbrella (small-flower umbrella sedge, Cyperus difformis); assay: Test B flooded paddy test; conditions: Cyperus difformis, 250 g ai/ha, Flood; 0 to 100 scale where 0 is no effect and 100 is complete control; read-out: Sedge, Umbrella plant response rating
How it was run: as §2

[18] = system: barnyardgrass (Echinochloa crus-galli); assay: Test B flooded paddy test; conditions: Echinochloa crus-galli, 250 g ai/ha, Flood; 0 to 100 scale where 0 is no effect and 100 is complete control; read-out: Barnyardgrass plant response rating
How it was run: as §2

[19] = 125 g ai/ha, preemergence, approx. 10 d

Compound `CN1C[C@H](c2csc3c2CCCC3)[C@@H](C(=O)Nc2ccccc2S(C)(=O)=O)C1=O` [Compound 1080] has a pest or weed control at 125 g/ha ([1]; 125 g ai/ha, postemergence, visual injury on 0 to 100 scale (0 no effect, 100 complete control), approx. 10 d, read-out: Pigweed plant response rating) of 0%, a pest or weed control at 31 g/ha ([1]; Postemergence, 31 g ai/ha, visual injury after approx. 10 d, 0 to 100 scale, 0 no effect, 100 complete control, read-out: Plant response rating, Pigweed) of 0% and a pest or weed control at 125 g/ha ([2]; 125 g ai/ha, postemergence, visual injury on 0 to 100 scale (0 no effect, 100 complete control), approx. 10 d, read-out: Ragweed plant response rating) of 0%. For the same compound, the pest or weed control at 31 g/ha ([2]; Postemergence, 31 g ai/ha, visual injury after approx. 10 d, 0 to 100 scale, 0 no effect, 100 complete control, read-out: Plant response rating, Ragweed) was 0%, the pest or weed control at 125 g/ha ([3]; 125 g ai/ha, postemergence, visual injury on 0 to 100 scale (0 no effect, 100 complete control), approx. 10 d, read-out: Galium plant response rating) was 0% and the pest or weed control at 31 g/ha ([3]; Postemergence, 31 g ai/ha, visual injury after approx. 10 d, 0 to 100 scale, 0 no effect, 100 complete control, read-out: Plant response rating, Galium) was 0%. For the same compound, the plant injury at 125 g/ha ([4]; 125 g ai/ha, postemergence, visual injury on 0 to 100 scale (0 no effect, 100 complete control), approx. 10 d, read-out: Wheat plant response rating) was 0%, the plant injury at 31 g/ha ([4]; Postemergence, 31 g ai/ha, visual injury after approx. 10 d, 0 to 100 scale, 0 no effect, 100 complete control, read-out: Plant response rating, Wheat) was 0% and the pest or weed control at 125 g/ha ([5]; 125 g ai/ha, postemergence, visual injury on 0 to 100 scale (0 no effect, 100 complete control), approx. 10 d, read-out: Ryegrass, Italian plant response rating) was 0%. The pest or weed control at 31 g/ha ([5]; Postemergence, 31 g ai/ha, visual injury after approx. 10 d, 0 to 100 scale, 0 no effect, 100 complete control, read-out: Plant response rating, Ryegrass, Italian) was 0%, the pest or weed control at 125 g/ha ([6]; 125 g ai/ha, postemergence, visual injury on 0 to 100 scale (0 no effect, 100 complete control), approx. 10 d, read-out: Blackgrass plant response rating) was 0% and the pest or weed control at 31 g/ha ([6]; Postemergence, 31 g ai/ha, visual injury after approx. 10 d, 0 to 100 scale, 0 no effect, 100 complete control, read-out: Plant response rating, Blackgrass) was 0%. For the same compound, the pest or weed control at 125 g/ha ([7]; 125 g ai/ha, postemergence, visual injury on 0 to 100 scale (0 no effect, 100 complete control), approx. 10 d, read-out: Foxtail, Giant plant response rating) was 0%, the pest or weed control at 31 g/ha ([7]; Postemergence, 31 g ai/ha, visual injury after approx. 10 d, 0 to 100 scale, 0 no effect, 100 complete control, read-out: Plant response rating, Foxtail, Giant) was 0% and the plant injury at 125 g/ha (corn (Zea mays); 125 g ai/ha, postemergence, visual injury on 0 to 100 scale (0 no effect, 100 complete control), approx. 10 d, read-out: Corn plant response rating) was 0%. For the same compound, the Corn plant response rating (crop injury, 0 = no effect, 100 = complete kill) at 31 g/ha (corn (Zea mays); Postemergence, 31 g ai/ha, visual injury after approx. 10 d, 0 to 100 scale, 0 no effect, 100 complete control) was 0%, the pest or weed control at 125 g/ha (Kochia (Kochia scoparia) [8]; 125 g ai/ha, postemergence, visual injury on 0 to 100 scale (0 no effect, 100 complete control), approx. 10 d, read-out: Kochia plant response rating) was 0% and the pest or weed control at 31 g/ha (Kochia (Kochia scoparia) [8]; Postemergence, 31 g ai/ha, visual injury after approx. 10 d, 0 to 100 scale, 0 no effect, 100 complete control, read-out: Plant response rating, Kochia) was 0%. For the same compound, the pest or weed control at 125 g/ha ([9]; 125 g ai/ha, postemergence, visual injury on 0 to 100 scale (0 no effect, 100 complete control), approx. 10 d, read-out: Barnyardgrass plant response rating) was 50%, the pest or weed control at 31 g/ha ([9]; Postemergence, 31 g ai/ha, visual injury after approx. 10 d, 0 to 100 scale, 0 no effect, 100 complete control, read-out: Plant response rating, Barnyardgrass) was 0% and the pest or weed control at 31 g/ha ([10]; 31 g ai/ha, Preemergence) was 0%. It also gave a pest or weed control at 125 g/ha [10, 19] of 0%, a pest or weed control at 31 g/ha ([11]; 31 g ai/ha, Preemergence) of 0% and a pest or weed control at 125 g/ha [11, 19] of 0%. It also gave a pest or weed control at 31 g/ha ([12]; 31 g ai/ha, Preemergence) of 0%, a pest or weed control at 125 g/ha [12, 19] of 0% and a pest or weed control at 31 g/ha ([13]; 31 g ai/ha, Preemergence) of 0%. For the same compound, the pest or weed control at 125 g/ha [13, 19] was 0%, the pest or weed control at 31 g/ha (Kochia (Kochia scoparia) [14]; 31 g ai/ha, Preemergence) was 0% and the pest or weed control at 125 g/ha (Kochia (Kochia scoparia) [14]; [19]) was 10%. For the same compound, the pest or weed control at 31 g/ha ([15]; 31 g ai/ha, Preemergence) was 0%, the pest or weed control at 125 g/ha [15, 19] was 0% and the pest or weed control at 250 g/ha [16] was 40%. For the same compound, the pest or weed control at 250 g/ha (rice (Oryra sativa)) was 15%, the pest or weed control at 250 g/ha [17] was 0% and the pest or weed control at 250 g/ha [18] was 50%.
